Experimental data from publication PMC11079024, “Identification of a family of species-selective complex I inhibitors as potential anthelmintics” (Nature Communications, 2024).
Where “and” joins values, the source holds several entries; their conditions need not be identical. Equal values may be shown once. Read-outs that look alike come from different tables or passages of the source.

How the values were obtained:
[1] = system: P. hermaphrodita complex I; assay: In vitro complex I activity assay, P. hermaphrodita mitochondria; type: biochemical, Phasmarhabditis hermaphrodita; conditions: purified mitochondria
Method: Mitochondria were isolated from the following free-living nematode strains: C. elegans—N2, CB3474, ECA882, ECA917, ECA1075, ECA1080; C. briggsae—AF16; P. pacificus—PS312; and P. hermaphrodita—B178. With the exception of the P. hermaphrodita strain B178, adult worms of each strain were grown in bulk through liquid culture to obtain mitochondria in sufficient quantities. Due to poor growth in liquid media, mixed stage populations of P. hermaphrodita were washed off and collected from NGM plates seeded with OP50. The isolation of mitochondria from all free-living nematode strains followed the protocol previously outlined in Burns et al.[24]. In brief, a 1 L saturated culture of E. coli HB101 was concentrated 20-fold in 50 mL complete S-medium. ~500,000 L1 worms synchronized from an embryo preparation performed the day prior were added to the S-media/HB101 suspension and grown to adulthood over the course of 3.5 days at 20 °C with shaking at 165 rpm. Following growth, worms were collected in 10 ×15 mL conical tubes and washed 7 times in M9 buffer. Worm suspensions were then combined into a single 15 mL conical tube and diluted to a final volume of 15 mL with M9 buffer. 1 mL aliquots of worm suspension were then distributed to 15 × 1.5 mL screw-cap microcentrifuge tubes and were pelleted at 500 g for 1 min. Excess M9 was aspirated without disturbing the worm pellet. 600 μL ice-cold isolate buffer A (250 mM sucrose, 10 mM Tris (pH 7.5), 1 mM EDTA, 1 mM PMSF (freshly prepared)) and 300 μL cold glass beads were then added to each tube. Tubes were incubated on ice for 10 min, and the worms were then lysed by bead beating (6 x 30 s, with 1 min cooling intervals). Tubes containing worm lysate were centrifuged at 1,000 g for 10 min at 4 °C and the supernatant was transferred to 15 new microcentrifuge tubes on ice. The tubes were centrifuged a second time at 1,000 g for 10 min at 4 °C and the supernatant was once again transferred to 15 new microcentrifuge tubes on ice. These tubes were then centrifuged at 16,000 g for 10 min at 4 °C. The resulting mitochondrial pellet was washed twice by re-suspension in 300 μL of ice-cold isolate buffer B (250 mM sucrose, 10 mM Tris (pH 7.5), 1 mM EDTA). Following the final wash, isolation buffer was aspirated from each tube and the pellets were flash-frozen in ethanol/dry ice and stored at −80 °C until needed.
The enzymatic activities of individual ETC complexes (I-IV) were assessed spectrophotometrically in isolated mitochondria using a Varioskan LUX Multimode plate reader (ThermoFisher Scientific). Mitochondrial pellets previously isolated were thawed on ice and resuspended in ice-cold isolation buffer (250 mM sucrose, 10 mM Tris (pH 7.5), 1 mM EDTA). The BCA assay (Walker, 1994) was used to quantify the protein concentration of mitochondria suspensions; solutions were diluted to a concentration of 0.2 mg/mL for use in all assays. For the complex I assay, mitochondria pellets were freeze-thawed on ice three times to increase enzyme accessibility. […] 20 μL mitochondria suspension was then added/mixed with a pipette to initiate the reaction. Immediately following the addition of mitochondria, absorbance was measured (complex I and II: 600 nm; complex III and IV: 550 nm) in 30 s intervals over 15 min. Enzymatic activity was determined in each reaction by plotting absorbance versus time and calculating the slope of the curve during the initial linear phase of the reaction. […] Percent activity of each complex was calculated by dividing the enzyme-specific activity of each well by the enzyme-specific activity of the corresponding solvent controls.
Chemical solutions were prepared in complex I assay buffer composed of 25 mM KPi buffer (pH 7.5), 3 mg/mL bovine serum albumin (BSA), 80 μM NADH, 60 μM decylubiquinone, 160 μM DCIP, 2 μM antimycin A and 2 mM KCN. […]

[2] = system: C. elegans complex III (decylubiquinol-cytochrome C reductase); assay: In vitro complex III activity assay, C. elegans mitochondria; type: biochemical, Caenorhabditis elegans; conditions: for CIII Activity: 100 μM inhibitor, in vitro activity relative to solvent control, N2 C. elegans mitochondria
Outline: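 Mitochondria were isolated from adult C. elegans by bead-beating and differential centrifugation, then used at 0.2 mg/mL protein. Antimycin A-sensitive complex III activity was followed as decylubiquinol-driven cytochrome C reduction at 550 nm every 30 s for 15 min. Initial linear slopes were expressed as percent of solvent control.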

[3] = system: C. elegans complex IV (cytochrome C oxidase); assay: In vitro complex IV activity assay, C. elegans mitochondria; type: biochemical, Caenorhabditis elegans; conditions: for CIV Activity: 100 μM inhibitor, in vitro activity relative to solvent control, N2 C. elegans mitochondria
Outline: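 Cytochrome C oxidase activity read spectrophotometrically at 550 nm (30 s intervals, 15 min) as oxidation of freshly DTT-reduced CytC. Mitochondria (0.2 mg/mL) came from adult worms of six C. elegans strains grown at 20 °C. Rates were taken from initial linear phase and normalised to solvent-control wells.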

[4] = target: C. elegans complex II (succinate dehydrogenase) (Caenorhabditis elegans, UniProt O62215+P41956+Q09545); assay: In vitro complex II activity assay, C. elegans mitochondria; type: biochemical; conditions: for percent (%) in vitro complex II activity relative to solvent control: wild-type C. elegans
Sequence of C. elegans complex II (succinate dehydrogenase) (P41956 30-182): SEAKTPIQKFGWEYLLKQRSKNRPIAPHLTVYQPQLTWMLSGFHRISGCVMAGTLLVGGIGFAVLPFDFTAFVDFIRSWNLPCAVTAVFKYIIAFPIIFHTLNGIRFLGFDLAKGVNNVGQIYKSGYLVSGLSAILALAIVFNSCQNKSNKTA
Sequence of C. elegans complex II (succinate dehydrogenase) (Q09545 22-298): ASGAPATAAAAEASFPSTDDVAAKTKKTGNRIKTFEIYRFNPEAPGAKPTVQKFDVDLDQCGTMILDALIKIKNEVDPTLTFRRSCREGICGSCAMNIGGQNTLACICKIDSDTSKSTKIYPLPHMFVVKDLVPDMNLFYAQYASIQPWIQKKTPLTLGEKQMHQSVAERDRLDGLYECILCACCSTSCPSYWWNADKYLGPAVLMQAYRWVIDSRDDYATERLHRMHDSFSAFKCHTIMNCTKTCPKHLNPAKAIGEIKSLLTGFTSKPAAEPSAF
Sequence of C. elegans complex II (succinate dehydrogenase) (Q09508 32-646, further chain): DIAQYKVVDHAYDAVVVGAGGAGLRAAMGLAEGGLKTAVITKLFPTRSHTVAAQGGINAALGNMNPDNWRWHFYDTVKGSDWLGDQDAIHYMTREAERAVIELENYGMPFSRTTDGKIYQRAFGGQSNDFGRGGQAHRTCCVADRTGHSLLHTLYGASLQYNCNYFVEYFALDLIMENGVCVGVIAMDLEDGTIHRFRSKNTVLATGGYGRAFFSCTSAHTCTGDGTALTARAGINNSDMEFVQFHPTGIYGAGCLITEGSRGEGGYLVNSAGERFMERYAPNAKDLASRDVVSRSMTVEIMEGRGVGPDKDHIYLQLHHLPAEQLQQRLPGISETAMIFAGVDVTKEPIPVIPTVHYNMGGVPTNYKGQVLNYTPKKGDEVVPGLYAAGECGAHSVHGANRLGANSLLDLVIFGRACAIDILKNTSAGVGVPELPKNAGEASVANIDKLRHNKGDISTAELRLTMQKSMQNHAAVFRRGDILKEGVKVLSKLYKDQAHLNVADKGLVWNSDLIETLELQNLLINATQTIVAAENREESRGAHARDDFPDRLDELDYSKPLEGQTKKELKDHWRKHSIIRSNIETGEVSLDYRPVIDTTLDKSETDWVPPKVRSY
Sequence of C. elegans complex II (succinate dehydrogenase) (O62215 31-145): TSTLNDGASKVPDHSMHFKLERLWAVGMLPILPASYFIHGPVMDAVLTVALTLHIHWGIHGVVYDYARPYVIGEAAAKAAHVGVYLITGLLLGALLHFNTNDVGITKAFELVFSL
Outline: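 Mitochondria isolated from adult C. elegans were diluted to 0.2 mg/mL protein and assayed for complex II by the DCIP-coupled method. A600 was read every 30 s over 15 min, with initial linear slope expressed as percent of solvent control. Screening was at 100 μM (≥3 biological replicates), followed by dose-response.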

[5] = system: HEK293 cells
[6] = 100 µM compound, relative to solvent control, mean (SEM)
[7] = 100 μM of NPD compound, C. elegans mitochondria, individual biological replicates
[8] = 100 μM of NPD compound, C. elegans mitochondria, mean of four biological replicates

In the case of `Cc1ccccc1OCCCCn1cnc2ccccc21` [Compound 7732524], the IC50 [1] is reported as 0.0687 µM.
In the case of `O=C(NCCc1ccc(Cl)cc1)c1ccccc1C(F)(F)F` [Wact-11], the “% Activity Complex III” value [2, 6] is reported as 90.97 (1.75) %, the “CIII Activity” value ([2]; Mean) is reported as 90.970% and the “CIII Activity” value ([2]; single replicate) is reported as 83.802% and 95.824% and 97.988% and 86.268%. For the same compound, the “Percent in vitro activity, Complex III (single replicate Rep1-Rep4)” value [2, 7] was 83.802% and 95.824% and 97.988% and 86.268%, the “Percent in vitro activity, Complex III (Mean)” value [2, 8] was 90.970% and the “% Activity Complex IV” value [3, 6] was 89.00 (0.63) %. The “CIV Activity” value ([3]; Mean) was 88.998%, the “CIV Activity” value ([3]; single replicate) was 91.037% and 86.647% and 91.305% and 87.004% and the “Percent in vitro activity, Complex IV (single replicate Rep1-Rep4)” value [3, 7] was 91.037% and 86.647% and 91.305% and 87.004%. The “Percent in vitro activity, Complex IV (Mean)” value [3, 8] was 88.998%, the “% Activity Complex II” value [4, 6] was 24.43 (0.62) % and the “CII Activity” value ([4]; 100 μM inhibitor, in vitro activity relative to solvent control, N2 C. elegans mitochondria, Mean) was 24.430%. The “Percent in vitro activity, Complex II (single replicate Rep1-Rep4)” value [4, 7] was 25.363% and 20.777% and 26.220%, the “Percent in vitro activity, Complex II (Mean)” value [4, 8] was 24.431% and the “percent (%) in vitro complex II activity relative to solvent control” value ([4]; dose 0.0001 µM, Mean of replicates) was 94.900%. The “percent (%) in vitro complex II activity relative to solvent control” value ([4]; dose 0.0001 µM, individual replicates) was 104.455% and 86.022% and 94.224%, the “percent (%) in vitro complex II activity relative to solvent control” value ([4]; dose 0.0005 µM, Mean of replicates) was 92.990% and the “percent (%) in vitro complex II activity relative to solvent control” value ([4]; dose 0.0005 µM, individual replicates) was 105.223% and 78.802% and 94.946%. The “percent (%) in vitro complex II activity relative to solvent control” value ([4]; dose 0.001 µM, Mean of replicates) was 95.541%, the “percent (%) in vitro complex II activity relative to solvent control” value ([4]; dose 0.001 µM, individual replicates) was 97.389% and 94.470% and 94.765% and the “percent (%) in vitro complex II activity relative to solvent control” value ([4]; dose 0.0025 µM, Mean of replicates) was 86.830%. The “percent (%) in vitro complex II activity relative to solvent control” value ([4]; dose 0.0025 µM, individual replicates) was 88.172% and 83.871% and 88.448%, the “percent (%) in vitro complex II activity relative to solvent control” value ([4]; dose 0.005 µM, Mean of replicates) was 71.382% and the “percent (%) in vitro complex II activity relative to solvent control” value ([4]; dose 0.005 µM, individual replicates) was 74.194% and 66.667% and 73.285%. For the same compound, the “percent (%) in vitro complex II activity relative to solvent control” value ([4]; dose 0.013 µM, Mean of replicates) was 42.140%, the “percent (%) in vitro complex II activity relative to solvent control” value ([4]; dose 0.013 µM, individual replicates) was 41.167% and 38.863% and 46.390% and the “percent (%) in vitro complex II activity relative to solvent control” value ([4]; dose 0.025 µM, Mean of replicates) was 24.327%. For the same compound, the “percent (%) in vitro complex II activity relative to solvent control” value ([4]; dose 0.025 µM, individual replicates) was 28.111% and 21.045% and 23.827%, the “percent (%) in vitro complex II activity relative to solvent control” value ([4]; dose 0.063 µM, Mean of replicates) was 7.305% and the “percent (%) in vitro complex II activity relative to solvent control” value ([4]; dose 0.063 µM, individual replicates) was 6.298% and 1.536% and 14.079%. The “percent (%) in vitro complex II activity relative to solvent control” value ([4]; dose 0.125 µM, Mean of replicates) was 1.918%, the “percent (%) in vitro complex II activity relative to solvent control” value ([4]; dose 0.125 µM, individual replicates) was 3.226% and 0.000% and 2.527% and the “percent (%) in vitro complex II activity relative to solvent control” value ([4]; dose 0.313 µM, Mean of replicates) was 0.000%. The “percent (%) in vitro complex II activity relative to solvent control” value ([4]; dose 0.313 µM, individual replicates) was 0.000%, the “percent (%) in vitro complex II activity relative to solvent control” value ([4]; dose 0.625 µM, Mean of replicates) was 2.509% and the “percent (%) in vitro complex II activity relative to solvent control” value ([4]; dose 0.625 µM, individual replicates) was 0.000% and 7.527%. The “percent (%) in vitro complex II activity relative to solvent control” value ([4]; dose 1.5 µM, Mean of replicates) was 0.000%, the “percent (%) in vitro complex II activity relative to solvent control” value ([4]; dose 1.5 µM, individual replicates) was 0.000% and the “percent (%) in vitro complex II activity relative to solvent control” value ([4]; dose 3 µM, Mean of replicates) was 0.717%. The “percent (%) in vitro complex II activity relative to solvent control” value ([4]; dose 3 µM, individual replicates) was 0.000% and 2.151%, the “percent (%) in vitro complex II activity relative to solvent control” value ([4]; dose 15 µM, Mean of replicates) was 2.650% and the “percent (%) in vitro complex II activity relative to solvent control” value ([4]; dose 15 µM, individual replicates) was 0.000% and 6.144% and 1.805%. The “percent (%) in vitro complex II activity relative to solvent control” value ([4]; dose 37.5 µM, Mean of replicates) was 1.029%, the “percent (%) in vitro complex II activity relative to solvent control” value ([4]; dose 37.5 µM, individual replicates) was 0.000% and 0.922% and 2.166% and the “percent (%) in vitro complex II activity relative to solvent control” value ([4]; dose 75 µM, Mean of replicates) was 0.000%. For the same compound, the “percent (%) in vitro complex II activity relative to solvent control” value ([4]; dose 75 µM, individual replicates) was 0.000%, the IC50 ([4]; wild-type (N2) mitochondria) was 0.0071 µM and the HEK293 viability [5] was 0.997. The HEK293 viability ([5]; dose 0.4 µM, Mean of replicates) was 0.929, the HEK293 viability ([5]; dose 0.4 µM, individual replicate (Rep)) was 0.886 and 0.902 and the HEK293 viability ([5]; dose 0.8 µM, Mean of replicates) was 0.971. The HEK293 viability ([5]; dose 0.8 µM, individual replicate (Rep)) was 0.916, the HEK293 viability ([5]; dose 6.3 µM, Mean of replicates) was 0.986 and the HEK293 viability ([5]; dose 6.3 µM, individual replicate (Rep)) was 0.982 and 0.975. For the same compound, the CC50 ([5]; read-out: HEK293 Cell Viability Assay LC50, 2 days exposure) was > 50 µM.
